According to patent publication US20240417727A1, “ANTAGONIST OF THE MIRNA-106B-5P TO TREAT OR PREVENT THE CARDIOTOXICITY THAT IS DEVELOPED IN ONCOLOGIC PATIENTS AFTER RECEIVING ANTHRACYCLINE-BASED CHEMOTHERAPY” (UNIVERSIDAD DE MURCIA, priority 2021, published 2024):

What was measured:
HDAC4-YY1 interaction = assay: Reciprocal co-immunoprecipitation of HDAC4 and YY1 in nuclear fraction of hiPsCMs; type: cell-based, human; conditions: nuclear fraction from hiPsCMs
Protocol: Briefly, fresh LV (˜30 mg) tissue or harvested untreated or treated cells (˜3×10^6 cells) were washed using cold DPBS along with 100-fold diluted protease and phosphatase inhibitors. Human cardiomyocytes were pelleted by centrifugation at 480×g for 10 min at 4° C., while the myocardium was placed in a pre-chilled glass Petri dish and minced on ice using sharp scissors. All samples were homogenized in 500 μl of STM buffer at pH 7.4, containing 250 mM sucrose, 50 mM Tris-HCl, 5 mM MgCl2, 5 mM Na3VO4, 1% (v/v) protease and phosphatase inhibitor cocktails and homogenized for 1 min on ice using a tight-fitting Teflon pestle attached to a Potter S. homogenizer (Sartorius Stedium, Goettingen, Germany) set to 800 rpm. The homogenate was maintained on ice for 30 min, vortexed at maximum speed for 15 s and then centrifuged at 800×g for 15 min at 4° C. The pellet was labelled as P0 and kept on ice; the supernatant was labelled as S0. The pellet P0 (containing nuclei and debris) was resuspended in 500 μl STM buffer, vortexed at maximum speed for 15 s and then centrifuged at 500×g for 15 min at 4° C. Following the above step, the nuclear pellet was labelled as P1 and kept on ice, and the supernatant S1 (cell debris) was discarded. […] The protein content of each compartment was determined using the BCA protein assay^48. […]

HDAC4 = assay: Phosphorylated and total HDAC4 in cytosol and nucleus (subcellular fractionation, Western blot); type: cell-based, human; conditions: hiPsCMs; for phosphorylation state of HDAC4 Ser246 in cytosol: Dox 15 h, preincubation 24 h before Dox; for total HDAC4 levels in nuclei fractions: Dox, pretreatment before Dox
Protocol: Briefly, fresh LV (˜30 mg) tissue or harvested untreated or treated cells (˜3×10^6 cells) were washed using cold DPBS along with 100-fold diluted protease and phosphatase inhibitors. Human cardiomyocytes were pelleted by centrifugation at 480×g for 10 min at 4° C., while the myocardium was placed in a pre-chilled glass Petri dish and minced on ice using sharp scissors. All samples were homogenized in 500 μl of STM buffer at pH 7.4, containing 250 mM sucrose, 50 mM Tris-HCl, 5 mM MgCl2, 5 mM Na3VO4, 1% (v/v) protease and phosphatase inhibitor cocktails and homogenized for 1 min on ice using a tight-fitting Teflon pestle attached to a Potter S. homogenizer (Sartorius Stedium, Goettingen, Germany) set to 800 rpm. The homogenate was maintained on ice for 30 min, vortexed at maximum speed for 15 s and then centrifuged at 800×g for 15 min at 4° C. The pellet was labelled as P0 and kept on ice; the supernatant was labelled as S0. The pellet P0 (containing nuclei and debris) was resuspended in 500 μl STM buffer, vortexed at maximum speed for 15 s and then centrifuged at 500×g for 15 min at 4° C. Following the above step, the nuclear pellet was labelled as P1 and kept on ice, and the supernatant S1 (cell debris) was discarded. To further increase the purity of the P1 fraction it was washed in 400 μl STM buffer, vortexed at maximum speed for 15 s and then centrifuged at 1000×g for 15 min at 4° C. The washed pellet was labelled as P2 (S2 was discarded) and resuspended in 100 μl NET buffer composed of 20 mM Hepes pH 7.9, 1.5 mM MgCl2, 0.5 M NaCl, 0.2 mM EDTA, 20% (v/v) glycerol, 1% (v/v) Triton-X-100 and protease and phosphatase inhibitors, using a pipette to triturate until homogeneity. Pellet P2 was vortexed at maximum speed for 15 s and incubated on ice for 30 min; the resulting fraction contained the nuclei, which were lysed by sonication (Soniprep 150, MSE, London, UK) at a high setting for 10-15 s with 30 s pauses whilst being kept on ice. The lysate was centrifuged at 9000×g for 30 min at 4° C., the resultant supernatant (S3) was the final “nuclear fraction”. […] The protein content of each compartment was determined using the BCA protein assay^48. […]
(§1) Protein extracts (10 μg) obtained were denatured, separated by SDS-PAGE electrophoresis (Bio-Rad), transferred onto PVDF membrane (Millipore) and probed with antibodies to GADPH (MERCK, 8795,1:5000), TBP (CELL SIGNALING, 8515, 1:1000), PR55α (CELL SIGNALING, 5689, 1:1000), phospho-HDAC4 (ABCAM, ab39408, 1:2000), HDAC4 (CELL SIGNALING, 5392, 1:1000), YY1 (CELL SIGNALING, 2185,1:1000) and sST2 (PROTEINTECH, 11,920-1-AP, 1:1000). […] Signals were detected by chemiluminescence and quantified using ImageJ 1.44p pixel analysis (US National Institutes of Health).

[1] = tested on: miR-106b target FOG2 in hiPsCMs; assay: FOG2 mRNA levels (efficiency of miR-106b inhibition) in hiPsCMs; type: cell-based, human; conditions: preincubation 24 h, then Dox 15 h, vs AC
hiPsCMs [2] = assay: LDH levels in cell supernatant from hiPsCMs; type: cell-based, human; conditions: Dox 15 h
HL-1 cell line = assay: FOG2 mRNA levels in HL-1 cell line; type: cell-based, mouse; conditions: 5 μM Dox for 15 h
[3] = tested on: Caspase 3/7 activity in hiPsCMs; assay: Caspase-Glo 3/7 assay; type: cell-based, human; conditions: 5 μM Dox 15 h
Protocol: Caspase assay was performed as per the manufacturer's instructions with the Caspase-Glo 3/7 kit (Promega). In this setting, hiPsCMs were treated with 5 μM Dox for 15 h. Next, hiPsCMs and caspase assay reagent were left at RT for 30 min. The next step was adding an equal amount of caspase assay reagent and further incubated for 30 min at RT. Luminescence was measured using a microplate reader CLARIOstar Plus (BMG Labtech).

sST2 = sST2 expression levels in hiPsCMs; type: cell-based, human; conditions: Dox 15 h
Protocol: RNA isolation and quantitative RT-PCR.
(§2) Protein extracts (10 μg) obtained were denatured, separated by SDS-PAGE electrophoresis (Bio-Rad), transferred onto PVDF membrane (Millipore) and probed with antibodies to GADPH (MERCK, 8795,1:5000), TBP (CELL SIGNALING, 8515, 1:1000), PR55α (CELL SIGNALING, 5689, 1:1000), phospho-HDAC4 (ABCAM, ab39408, 1:2000), HDAC4 (CELL SIGNALING, 5392, 1:1000), YY1 (CELL SIGNALING, 2185,1:1000) and sST2 (PROTEINTECH, 11,920-1-AP, 1:1000). Membranes were developed using HRP conjugated secondary antibodies and Pierce ECL western blotting substrate (Thermo Fisher Scientific). Signals were detected by chemiluminescence and quantified using ImageJ 1.44p pixel analysis (US National Institutes of Health).

PR55α = PR55α expression levels by Western blot in hiPsCMs; type: cell-based, human; conditions: for decrease in PR55α protein levels: Dox
Excerpt: The hsa-miR-106b-5p sequence of nucleotides was obtained from www.MiRbase.org. Human miR-106b (accession No: MIMAT0000680) and nucleotide sequence of 5′-[…]-3′ are homologous between mice and man. In order to express or block the specific miR-106b function, synthetic pre-miR-106b or antimiR-106 oligonucleotides were transfected into hiPsCMs cells, respectively. Lipofectamine RNAiMAX transfection reagent (ThermoFisher) was used according to the manufacturer's instructions. […] Two day before transfection, hiPsCMs cells were seeded in 6-well plates with 2 ml of STEMdiff™ Cardiomyocyte Support Medium (STEMCELL™ Technologies) to a density of 60%. Stock transfection mixes were made according to manufacturer's instructions. Briefly, 9 μl of Lipofectamine reagent was diluted in 141 μl of Opti-MEM I Medium (Invitrogen) and incubated 5 min at RT. In another tube, pre-miRNA, anti-miRNA or the specific controls oligonucleotides were diluted with Opti-MEM to a final concentration of 50 nM. Both mixes were incubated together for 30 min at RT to allow complex formation between miRNA and lipids. To transfect cells, the STEMdiff™ Cardiomyocyte Support Medium was removed and replaced with 1.75 ml fresh Medium and 250 μl of the appropriate transfection mix. Cells were incubated at 37° C. for […], after which hiPsCMs were treated with […] Dox for 15 h. Transfection efficiency was tested in parallel using both hiPsCMs as well as a mouse cell line HL-1 (FIG. 7). […]
as §1

hiPsCMs [4] = assay: Assay for cell viability (MTT); type: cell-based, human; conditions: Dox 15 h
Protocol: After seeding 5×10^3 cells in each 96-well plate, they were incubated in 5% CO2 at 37° C. for 24 h. After cited treatment, MTT solution (1 mg/ml) was added to each well and an incubation was performed for 3 h at 37° C. Next, the medium containing MTT was removed and 100 μL of DMSO was added to each well and pipetted several times to form a completely uniform suspension. The solution was then shaken for 10 min at 37° C. until formazan crystals were completely dissolved. The obtained solution was added to a microtube and centrifuged in 1500 RPM for 5 min to eliminate any impurities. Absorbance of the samples was read at 570 nm and the background value at 690 nm was subtracted. The intrinsic absorbance value of doxorubicin was subtracted when necessary. The index of cell survival at each time point corresponds to the percentage with respect to control.

PP2A = PP2A Immunoprecipitation Phosphatase Assay; type: cell-based, human; conditions: hiPsCMs, Dox treatment
Protocol: To measure PP2A phosphatase activity, we used a PP2A Immunoprecipitation Phosphatase Assay Kit (Millipore Sigma, catalog number 17-313). In brief, cells were lysed in 20 mM imidazole HCl, 2 mM EDTA, 2 mM EGTA, pH 7.0 with 10 μg/mL each of aprotinin, leupeptin, pepstatin, 1 mM benzamidine, and 1 mM PMSF. Two milligrams of the lysates were then immunoprecipitated with 2 μg of anti-STRN4 antibody (Abcam, ab177155) and 40 μl of protein-A-agarose beads at 4° C. overnight. Beads were washed three times with lysis buffer followed by the Ser/Thr assay buffer. Phosphatase reactions were then performed in Ser/Thr assay buffer with a final concentration of 750 μM of MAP4K4 phosphopeptides: S771/S775 (A-A-S-pS-L-N-L-pS-N-G-E-T-E-S-V-K), S876 (L-T-A-N-E-T Q-pS-A-S-S-T-L-Q-K) or S1251 (V-F-F-A-pS-V-R-S) for 10 min at 30° C. To provide evidence that the immunoprecipitated phosphatase activity is PP2A, we treated parallel immunoprecipitates with 5 nM of okadaic acid (Cell Signaling, #5934). Dephosphorylation of the phosphopeptide was measured through malachite green phosphate detection at 650 nm.

YY1 = YY1 expression levels by Western blot in hiPsCMs; type: cell-based, human; conditions: Dox
Protocol: as §2

miR-106b = miR-106b levels by quantitative RT-PCR in hiPsCMs exposed to Dox; type: cell-based, human; conditions: 5 μM Dox
Protocol: Human induced pluripotent stem cells (hiPCs) were obtained from Phenocell®, (Catalog No. PCi_CAU) and cultured according to manufacturer's instructions. Briefly, hiPCs on a suitable matrix to allow attachment of cell aggregates (Matrigel®), were grown to 80% confluence using mTeSR™ plus medium. At passage 20, we started reprogramming procedure using a standardize protocol in our laboratory. Thus, culture medium was removed and changed to RPMI-1640 with B27 minus insulin supplement (basal differentiation supplement) with 4 μM CHIR99021 (day 0). On day 3, medium was changed to basal differentiation supplement and 3 μM IWR-1. On day 5, medium was refreshed with basal differentiation supplement. Medium was changed on day 8 to RPMI 1640 with B27 supplement (cited above as RMPI/B27). On day 11, medium was changed to RPMI 1640 without glucose with B27 minus insulin. On day 14, medium was changed to RPMI/B27; procedure that was repeated every 72 h. Beating clusters were observed after 7-14 days. A standardizing gene expression profiling (RT-qPCR) both hiPs as well as hiPsCMs were carried in each human isolated clone, before starting assays. […] The cardiotoxic treatment was carried out by exposing the cell culture to 5 μM doxorubicin for different time period; unless otherwise mentioned. All the in vitro assays were performed as three biological replicates, with technical replicates each time.
Mature miR-106b expression levels were assessed by quantitative RT-PCR using the miRCURY LNA UniRT PCR primer for miR813 106b-5p (Qiagen) and Power SYBR5Green PCR Master Mix (Thermo Fisher Scientific). U6 (Qiagen) was used as internal control to normalize miR-106b expression.

Compound | HDAC4-YY1 interaction (HDAC4-YY1 interaction) | phosphorylation state of HDAC4 Ser246 in cytosol (HDAC4) | total HDAC4 levels in nuclei fractions (HDAC4) | FOG2 mRNA levels [1] | release of LDH (hiPsCMs [2]) | FOG2 mRNA levels (HL-1 cell line) | caspase 3/7 activity (myocardial apoptosis) [3] | sST2 expression levels (sST2) | PR55α levels (PR55α; with or without Dox) | loss of Dox-induced cell viability (hiPsCMs [4]) | PP2A activity (PP2A) | YY1 protein expression (YY1; 6 h of treatment) [fold control] | YY1 protein expression (YY1; 15 h, p<0.001) | miR-106b levels in hiPsCMs (miR-106b; 3 h of treatment) [fold control] | miR-106b levels in hiPsCMs (miR-106b; 15 h, p<0.001) | miR-106b levels in the culture media of hiPsCMs (miR-106b; significant from 15 h) | decrease in PR55α protein levels (PR55α; 6 h of treatment) [fold control] | decrease in PR55α protein levels (PR55α; 15 h, p<0.001)
AM106: miRCURY LNA microRNA Inhibitor against miR-106b-5p, 5′-CACTGTCAGCACTTT-3′ (SEQ ID NO 3), sequence shown without LNA pattern (antisense CACUGUCAGCACUUU; LNA-modified inhibitor, LNA pattern not given here) | favored these interaction | decreased phosphorylation state of HDAC4 | increased | prevent down-regulation of FOG2 mRNA levels | prevent the release of LDH | increases FOG2 mRNA levels | decrease in caspase 3/7 activity | reverted this effect | prevented Dox-induced PR55α degradation | able to prevent | prevented Dox-induced PP2A activity decrease |  |  |  |  |  |  | 
COc1cccc2c1C(=O)c1c(O)c3c(c(O)c1C2=O)C[C@@](O)(C(=O)CO)C[C@@H]3O[C@H]1C[C@H](N)[C@H](O)[C@H](C)O1 [Dox, doxorubicin] | prevent HDAC4-YY1 interaction | significantly increases | significative decrease in total HDAC4 levels |  |  |  |  | increase in sST2 expression levels |  |  |  | 3.8±0.23 | significantly higher | 2.3±0.03 | significantly higher | progressively increased | 2.6±0.02 | significantly higher
